Experimental data from the NIST ThermoML archive (doi:10.1016/j.tca.2016.06.014).
Several values for one entry are separate records, joined by “and”; a condition that tells them apart may be missing. Identical values can stand only once. Numbers after ± are expanded uncertainties.

What was measured:
[1] = for vapor or sublimation pressure: Transpiration method; for Normal melting temperature: DTA; for Triple point temperature: DSC
[2] = Molar enthalpy of transition or fusion; details: DSC

ClC1C2CC3CC(C2)CC1C3 (stereo unspecified) [2-chlorotricyclo[3.3.1.1(3,7)]decane]
vapor or sublimation pressure ([1]; 298.6 K, Crystal): 0.00623 ± 0.00047 kPa | vapor or sublimation pressure ([1]; 301.6 K, Crystal): 0.0076 ± 0.00049 kPa | vapor or sublimation pressure ([1]; 303.5 K, Crystal): 0.00901 ± 0.00054 kPa | vapor or sublimation pressure ([1]; 308.4 K, Crystal): 0.01307 ± 0.00078 kPa | vapor or sublimation pressure ([1]; 310.3 K, Crystal): 0.01568 ± 0.001 kPa | vapor or sublimation pressure ([1]; 313.3 K, Crystal): 0.0191 ± 0.0012 kPa | vapor or sublimation pressure ([1]; 313.5 K, Crystal): 0.01927 ± 0.0012 kPa and 0.01999 ± 0.0013 kPa and 0.01925 ± 0.0012 kPa | vapor or sublimation pressure ([1]; 315.3 K, Crystal): 0.0223 ± 0.0015 kPa | vapor or sublimation pressure ([1]; 318.2 K, Crystal): 0.02668 ± 0.0017 kPa | vapor or sublimation pressure ([1]; 323.5 K, Crystal): 0.03885 ± 0.0025 kPa | vapor or sublimation pressure ([1]; 328.2 K, Crystal): 0.05574 ± 0.0035 kPa | vapor or sublimation pressure ([1]; 333.2 K, Crystal): 0.07877 ± 0.005 kPa | vapor or sublimation pressure ([1]; 335.7 K, Crystal): 0.08972 ± 0.0055 kPa | vapor or sublimation pressure ([1]; 338.2 K, Crystal): 0.106 ± 0.0067 kPa | Normal melting temperature ([1]; Crystal): 195.0 ± 1.1 °C | Molar enthalpy of transition or fusion ([2]; Crystal): 1.51 ± 0.239 kcal/mol

ClC12CC3CC(CC(C3)C1)C2 [1-chlorotricyclo[3.3.1.1(3,7)]decane]
vapor or sublimation pressure ([1]; 298.5 K, Crystal): 0.01172 ± 0.00075 kPa | vapor or sublimation pressure ([1]; 301 K, Crystal): 0.01402 ± 0.00097 kPa | vapor or sublimation pressure ([1]; 303.2 K, Crystal): 0.01766 ± 0.0011 kPa | vapor or sublimation pressure ([1]; 303.4 K, Crystal): 0.01712 ± 0.001 kPa | vapor or sublimation pressure ([1]; 306.3 K, Crystal): 0.02255 ± 0.0015 kPa | vapor or sublimation pressure ([1]; 308.3 K, Crystal): 0.02567 ± 0.0016 kPa | vapor or sublimation pressure ([1]; 308.4 K, Crystal): 0.02653 ± 0.0017 kPa | vapor or sublimation pressure ([1]; 311.4 K, Crystal): 0.03389 ± 0.0022 kPa | vapor or sublimation pressure ([1]; 313.3 K, Crystal): 0.0365 ± 0.0023 kPa | vapor or sublimation pressure ([1]; 316.2 K, Crystal): 0.04719 ± 0.003 kPa | vapor or sublimation pressure ([1]; 318.2 K, Crystal): 0.05137 ± 0.0033 kPa and 0.05598 ± 0.0036 kPa | vapor or sublimation pressure ([1]; 323.2 K, Crystal): 0.07923 ± 0.005 kPa | vapor or sublimation pressure ([1]; 323.3 K, Crystal): 0.0762 ± 0.0048 kPa | vapor or sublimation pressure ([1]; 326.2 K, Crystal): 0.09623 ± 0.006 kPa | vapor or sublimation pressure ([1]; 328.2 K, Crystal): 0.1033 ± 0.0064 kPa and 0.11 ± 0.0069 kPa | vapor or sublimation pressure ([1]; 330.7 K, Crystal): 0.1198 ± 0.0075 kPa | vapor or sublimation pressure ([1]; 333.2 K, Crystal): 0.1492 ± 0.0094 kPa | vapor or sublimation pressure ([1]; 333.4 K, Crystal): 0.1437 ± 0.009 kPa | Normal melting temperature ([1]; Crystal): 165.8 ± 1.1 °C | Molar enthalpy of transition or fusion ([2]; Crystal): 1.24 ± 0.239 kcal/mol

BrC12CC3CC(CC(C3)C1)C2 [1-bromotricyclo[3.3.1.1(3,7)]decane]
vapor or sublimation pressure ([1]; 298.2 K, Crystal 2): 0.00419 ± 0.00028 kPa | vapor or sublimation pressure ([1]; 303.2 K, Crystal 2): 0.00677 ± 0.00043 kPa | vapor or sublimation pressure ([1]; 313.2 K, Crystal 1): 0.0166 ± 0.0011 kPa | vapor or sublimation pressure ([1]; 317.3 K, Crystal 1): 0.02262 ± 0.0014 kPa | vapor or sublimation pressure ([1]; 320.2 K, Crystal 1): 0.02932 ± 0.0019 kPa | vapor or sublimation pressure ([1]; 323.2 K, Crystal 1): 0.03504 ± 0.0022 kPa | vapor or sublimation pressure ([1]; 325.7 K, Crystal 1): 0.04244 ± 0.0027 kPa | vapor or sublimation pressure ([1]; 328.2 K, Crystal 1): 0.04954 ± 0.0031 kPa | vapor or sublimation pressure ([1]; 333.1 K, Crystal 1): 0.06913 ± 0.0043 kPa | vapor or sublimation pressure ([1]; 337.1 K, Crystal 1): 0.08922 ± 0.0056 kPa | Triple point temperature ([1]; Crystal 1): 390.9 ± 1.2 K | Triple point temperature ([1]; Crystal 2): 311.6 ± 1.2 K | Molar enthalpy of transition or fusion ([2]; Crystal 1): 1.15 ± 0.239 kcal/mol | Molar enthalpy of transition or fusion ([2]; Crystal 2): 1.77 ± 0.239 kcal/mol

BrC1C2CC3CC(C2)CC1C3 (stereo unspecified) [2-bromoadamantane]
vapor or sublimation pressure ([1]; 298.5 K, Crystal): 0.00329 ± 0.00025 kPa | vapor or sublimation pressure ([1]; 300.9 K, Crystal): 0.0039 ± 0.00028 kPa | vapor or sublimation pressure ([1]; 303.4 K, Crystal): 0.00475 ± 0.00034 kPa | vapor or sublimation pressure ([1]; 308.4 K, Crystal): 0.00703 ± 0.00045 kPa | vapor or sublimation pressure ([1]; 313.3 K, Crystal): 0.01089 ± 0.0007 kPa | vapor or sublimation pressure ([1]; 318.2 K, Crystal): 0.01506 ± 0.00096 kPa | vapor or sublimation pressure ([1]; 323.2 K, Crystal): 0.02279 ± 0.0014 kPa | vapor or sublimation pressure ([1]; 328.2 K, Crystal): 0.03107 ± 0.002 kPa | vapor or sublimation pressure ([1]; 333.2 K, Crystal): 0.04422 ± 0.0028 kPa | vapor or sublimation pressure ([1]; 338.2 K, Crystal): 0.06437 ± 0.004 kPa | vapor or sublimation pressure ([1]; 340.1 K, Crystal): 0.07403 ± 0.0046 kPa | vapor or sublimation pressure ([1]; 343.1 K, Crystal): 0.08635 ± 0.0053 kPa | Normal melting temperature ([1]; Crystal): 141.6 ± 1.1 °C | Molar enthalpy of transition or fusion ([2]; Crystal): 1 ± 0.239 kcal/mol

BrC1CCCCC1 [bromocyclohexane]
vapor or sublimation pressure ([1]; 277.5 K, Liquid): 0.105 ± 0.0066 kPa | vapor or sublimation pressure ([1]; 280 K, Liquid): 0.1251 ± 0.0078 kPa | vapor or sublimation pressure ([1]; 281.7 K, Liquid): 0.1422 ± 0.009 kPa | vapor or sublimation pressure ([1]; 283.6 K, Liquid): 0.1639 ± 0.01 kPa | vapor or sublimation pressure ([1]; 285.5 K, Liquid): 0.1872 ± 0.012 kPa | vapor or sublimation pressure ([1]; 287.4 K, Liquid): 0.21 ± 0.013 kPa | vapor or sublimation pressure ([1]; 288.8 K, Liquid): 0.2298 ± 0.015 kPa | vapor or sublimation pressure ([1]; 289.3 K, Liquid): 0.2446 ± 0.015 kPa | vapor or sublimation pressure ([1]; 291.3 K, Liquid): 0.2704 ± 0.017 kPa | vapor or sublimation pressure ([1]; 293.2 K, Liquid): 0.3182 ± 0.02 kPa | vapor or sublimation pressure ([1]; 295.3 K, Liquid): 0.3668 ± 0.023 kPa | vapor or sublimation pressure ([1]; 297.3 K, Liquid): 0.4161 ± 0.026 kPa
